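Cultured in 96-well plates, cells were exposed to test compound for 48 hours across five concentrations. TGI is the concentration that stops growth completely.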
Experiments:
Test in all cases: NCI tumour cell line growth inhibition, 48 h
NCI-H226 lung = test system: NCI-H226 lung
HS 578T breast = test system: HS 578T breast
MOLT-4 leukemia = test system: MOLT-4 leukemia
OVCAR-8 ovarian = test system: OVCAR-8 ovarian
EKVX NSCLC = test system: EKVX NSCLC
UO-31 renal = test system: UO-31 renal
SK-MEL-2 melanoma = test system: SK-MEL-2 melanoma
SF-295 CNS = test system: SF-295 CNS
RPMI-8226 leukemia = test system: RPMI-8226 leukemia
MALME-3M melanoma = test system: MALME-3M melanoma

SMILES | TGI (NCI-H226 lung) [µM] | TGI (HS 578T breast) [µM] | TGI (MOLT-4 leukemia) [µM] | TGI (OVCAR-8 ovarian) [µM] | TGI (EKVX NSCLC) [µM] | TGI (UO-31 renal) [µM] | TGI (SK-MEL-2 melanoma) [µM] | TGI (SF-295 CNS) [µM] | TGI (RPMI-8226 leukemia) [µM] | TGI (MALME-3M melanoma) [µM]
CC1(C)OC[C@@H](/C=C\CCO[Si](c2ccccc2)(c2ccccc2)C(C)(C)C)N1C(=O)c1ccccc1 | 25.5 | 55.1 | 47.1 | > 100 | 25.8 | 36.5 | 19.6 | > 100 | 23.2 | 
O=C(Cc1nc2ccc(C(=O)c3ccccc3)cc2[nH]c1=O)C(=O)Nc1ccccc1[N+](=O)[O-] | > 100 | > 100 |  | > 100 | > 100 | > 100 | > 100 | > 100 | > 100 | > 100
CC(=O)O[C@]12CCCCCCC1C1(O)C(O)CCC[C@H]12 (some centres not stated) | > 100 |  | > 100 | > 100 | > 100 | > 100 | > 100 | > 100 | > 100 | > 100
CC1=NN(C(=O)CC(=O)Nc2cccc(Cl)c2)C(=O)C1N=Nc1ccc(S(N)(=O)=O)cc1 (configuration not stated) | > 100 |  | > 100 | > 100 | > 100 | > 100 | > 100 | > 100 | > 100 | > 100
COc1cc(C2SCC(=O)N2NC(=O)c2ccc(NC(C)=O)cc2)cc(OC)c1OC (configuration not stated) | > 100 | > 100 | > 100 | > 100 | > 100 | > 100 | > 100 | > 100 | > 100 | 
C#CC(C)(C)Oc1cc(OC)c2c(=O)c3ccccc3n(C)c2c1 | 36.4 | 60.6 | 22.3 | 68 | 74.5 | 22.5 | 35.7 | 51.8 | 25 | 
c1ccc2c3c(ccc2c1)CSCc1ccc2ccccc2c1-3 |  | > 100 | > 100 | > 100 | > 100 | > 100 | > 100 | > 100 | > 100 | > 100
Cc1ncc([N+](=O)[O-])n1CCN=[N+]=[N-] | > 100 | > 100 |  | > 100 | > 100 | > 100 | > 100 | > 100 | > 100 | > 100
O=C(c1cccs1)N(C(=S)N1CCN(c2ccccc2)CC1)c1ccccc1 | > 100 |  | > 100 | > 100 |  | > 100 | > 100 | > 100 | > 100 | > 100
O=[N+]([O-])c1ccc2nc3ccc([N+](=O)[O-])cn3c2c1 | > 100 | > 100 | > 100 | > 100 | > 100 | > 100 | > 100 | > 100 |  | > 100
N#Cc1c(N)c(-c2ccc(Cl)cc2)c(F)c2ccccc12 | > 100 | > 100 |  | > 100 | > 100 | > 100 | > 100 | > 100 | > 100 | > 100
CC1(C)CC(=O)C(/C=N/c2nc(-c3ccc(Br)cc3)cs2)=C(O)C1 | > 100 |  | > 100 | > 100 | > 100 | 73.1 | 48.4 | > 100 |  | 
O=C1CSC2(CC(/C=C/C=C/c3ccccc3)=NN2c2cccc(S(=O)(=O)O)c2)N1c1nc2ccccc2s1 (configuration not stated) | > 100 |  | 67.1 | > 100 | > 100 | > 100 | > 100 |  | 55 | 
c1ccc(C2=NN3CN(N2)c2ccccc2OCCCOc2ccccc23)cc1 | > 100 |  | > 100 | > 100 | > 100 | > 100 | > 100 | > 100 | > 100 | > 100
CCOC(=O)/C=C1\Nc2ccccc2C12CCc1c([nH]c3ccccc13)C2C(=O)OCC (configuration not stated) |  | > 100 | > 100 | > 100 | > 100 | > 100 | > 100 | > 100 | 61.9 | > 100
COc1cc(C2C(Cl)C(=O)N2c2ccc(Br)cc2)cc(I)c1O (configuration not stated) |  | > 100 | > 100 | > 100 | > 100 | > 100 | > 100 | > 100 | > 100 | 
COC(=O)C12CC(C3CC31)C1CC12 (configuration not stated) | > 100 |  | > 100 | > 100 |  | > 100 |  | > 100 | > 100 | > 100
Oc1ccc(-c2c3c(nc4c2CCc2ccc(Br)cc2-4)-c2cc(Br)ccc2CC3)cc1 | 48 |  |  |  | 46.1 | 38.4 | 35 | 31.7 | 77.3 | 50.4
Cc1cnc(Cl)nc1C(C#N)c1nc2ccccc2n1C (configuration not stated) | > 100 |  | > 100 | > 100 | 57.1 | > 100 |  | > 100 | > 100 | > 100
CCCCCCCCCCCCC(=O)NCC(=O)NC(Cc1ccccc1)C(=O)Oc1ccc([N+](=O)[O-])cc1 (configuration not stated) | > 100 | > 100 |  | > 100 | > 100 | > 100 | > 100 | > 100 |  | 
COc1ccccc1C(=O)c1c(N2CCCCC2)c(=O)c1=O | > 100 |  | > 100 | > 100 | > 100 | > 100 | > 100 | > 100 | > 100 | > 100
[N-]=[N+]=NC1(c2ccccc2)C(=O)Nc2ccccc2C1=O (configuration not stated) |  | 76.9 | 76.6 |  |  | 73.8 | 67.3 | > 100 | > 100 | > 100
O=C1/C(=C/c2cccc(Oc3ccccc3)c2)N=C(c2ccccc2)N1c1nc2ccc(Sc3ccccc3)cc2[nH]1 |  | > 100 | > 100 | > 100 | > 100 | > 100 | 38.4 | 53.7 | 56.5 | > 100
